In brackets after ≈: the same amount, converted by molar mass.

For one data set, the system named is Caco-2 cells. Put plainly: in vitro. It counts as in vitro ADME.
Conditions: not given
As for the experimental part: Caco-2 cells were maintained in Dulbecco's Modification of Eagle's Medium (DMEM) with sodium pyruvate, Glutmax supplemented with 1% Pen/Strep, 1% NEAA and 10% fetal bovine serum in an incubator set at 37° C., 90% humidity and 5% CO2. Caco-2 cells between passage 43 and 61 were grown to confluence over at least 21-days on 24 well PET (polyethylene-terephthalate) plates (BD Biosciences). Experiments were run using a new HBSS donor buffer from Invitrogen containing additional 10 mM HEPES, 15 mM Glucose with pH adjusted to pH 6.5. The receiver well used HBSS buffer supplemented with 1% BSA and the pH adjusted to pH 7.4. After an initial equilibration with transport buffer, TEER values were read to test membrane integrity. The experiment was started by the addition of buffers containing test compounds and 100 μl of solution is taken at 1 and 2 hrs from the receiver compartment. Removed buffer was replaced with fresh buffer and a correction was applied to all calculations for the removed material. Each compound was tested in 2 separate replicate wells for each condition. All samples were immediately collected into 400 μl 100% acetonitrile acid to precipitate protein and stabilize test compounds. Cells were dosed on the apical or basolateral side to determine forward (A to B) and reverse (B to A) permeability. Permeability through a cell free trans-well was also determined as a measure of cellular permeability through the membrane and non-specific binding. To test for non-specific binding and compound instability the total amount of drug was quantitated at the end of the experiment and compared to the material present in the original dosing solution as a percent recovery. Samples were analyzed by LC/MS/MS.
The apparent permeability, Papp, and % recovery were calculated as follows: […]
where, • dR/dt is the slope of the cumulative concentration in the receiver compartment versus time in μM/s based on receiver concentrations measured at 60 and 120 minute. • Vr and Vd is the volume in the receiver and donor compartment in cm^3, respectively. • A is the area of the cell monolayer (0.33 cm^2). • D0 and D120 is the measured donor concentration at the beginning and end of the experiment, respectively. • R120 is the receiver concentration at the end of the experiment (120 minutes).
The apparent permeability for certain compounds were determined using the above procedure.
For `CCCCCC(=O)OC[C@H]1O[C@@H](n2cc3c4c(ncnc42)NC(=O)C=C3N)[C@@](C)(O)[C@@H]1OC(=O)CCCCC` (stereo in doubt) [Compound 102, Hexanoic acid 5-(9-amino-7-oxo-6,7-dihydro-2,3,5,6-tetraaza-benzo[cd]azulen-2-yl)-3-hexanoyloxy-4-hydroxy-4-methyl-tetrahydro-furan-2-ylmethyl ester], the “Permeability Papp (A to B) × 10^−6 cm/s (Caco-2 A-B)” value was “high”.

As for `CC(=O)OC[C@H]1O[C@@H](n2cc3c4c(ncnc42)NC(=O)C=C3N)[C@@](C)(O)[C@@H]1O` (stereo in doubt) [Compound 107, Acetic acid 5-(9-amino-7-oxo-6,7-dihydro-2,3,5,6-tetraaza-benzo[cd]azulen-2-yl)-3,4-dihydroxy-4-methyl-tetrahydro-furan-2-ylmethylester], the “Permeability Papp (A to B) × 10^−6 cm/s (Caco-2 A-B)” value is “low”. On the same count and under the same terms, to `CC(=O)O[C@@H]1[C@@H](CO)O[C@@H](n2cc3c4c(ncnc42)NC(=O)C=C3N)C1(C)O` (stereo in doubt) [Compound 114, Acetic acid 5-(9-amino-7-oxo-6,7-dihydro-2,3,5,6-tetraaza-benzo[cd]azulen-2-yl)-4-hydroxy-2-hydroxymethyl-4-methyl-tetrahydro-furan-3-yl ester] belongs “medium”.

Test system in another data set: not listed separately
Description: Solubility (shaking flask). It counts as physicochemical. Conditions: phosphate buffer solution (PBS), aqueous buffer, thermodynamic from solid; PBS; 37° C. for 24 hours. As for the experimental part:
The solubility for certain compounds were determined using the following protocol and procedure. 1) The solution, sterile water or phosphate buffer solution (PBS), was added to the test compound tube to make the final concentration 10 mg/mL. 2) The sample tube was vortexed and incubated at 37° C. for 24 hours. During the incubation period, the sample tube was vortexed several times. 3) After the incubation, vortex the tube and centrifuge the tube at 13,000 rpm for 10 mins using an Eppendorf Centrifuge Model 5415C. If the solution was still cloudy, centrifuge it for longer until a clear supernatant was achieved. 4) The supernatant was diluted to 1×, 10× and 100× in 50% ACN in water. 5) A six point standard curve was prepared separately to make the final concentrations of 1 μg/mL, 5 μg/mL, 10 μg/mL, 20 μg/mL, 40 μg/mL and 60 μg/mL. 6) Samples were quantified using an HPLC with UV detector. 7) From the three concentrations of 1×, 10× and 100× supernatant, choose the value, which was fallen into the standard curve range (1 ug/mL-60 ug/mL), as the final result. If all the results were out of the curve range, adjust using a dilution factor to make the value within the curve range.
Take `CCCCCC(=O)OC[C@H]1O[C@@H](n2cc3c4c(ncnc42)NC(=O)C=C3N)[C@@](C)(O)[C@@H]1OC(=O)CCCCC` (stereo in doubt) [Compound 102, Hexanoic acid 5-(9-amino-7-oxo-6,7-dihydro-2,3,5,6-tetraaza-benzo[cd]azulen-2-yl)-3-hexanoyloxy-4-hydroxy-4-methyl-tetrahydro-furan-2-ylmethyl ester]: the concentration in solution (solubility at 24 h) came to 11 µg/mL (≈ 20.2 µM). As to `CC(=O)OC[C@H]1O[C@@H](n2cc3c4c(ncnc42)NC(=O)C=C3N)[C@@](C)(O)[C@@H]1O` (stereo in doubt) [Compound 107, Acetic acid 5-(9-amino-7-oxo-6,7-dihydro-2,3,5,6-tetraaza-benzo[cd]azulen-2-yl)-3,4-dihydroxy-4-methyl-tetrahydro-furan-2-ylmethylester], the solubility – broadly, the concentration that dissolves in the medium under given conditions – at 24 h came to 9150 µg/mL (≈ 23500 µM).

The compound `CC(=O)O[C@@H]1[C@@H](CO)O[C@@H](n2cc3c4c(ncnc42)NC(=O)C=C3N)C1(C)O` (stereo in doubt) [Compound 114, Acetic acid 5-(9-amino-7-oxo-6,7-dihydro-2,3,5,6-tetraaza-benzo[cd]azulen-2-yl)-4-hydroxy-2-hydroxymethyl-4-methyl-tetrahydro-furan-3-yl ester] displayed a solubility at 24 h of 2950 µg/mL (≈ 7580 µM).

`CC(=O)OC[C@H]1O[C@@H](n2cc3c4c(ncnc42)NC(=O)C=C3NC(=O)OCOC(=O)C(C)C)C(C)(O)[C@@H]1OC(C)=O` (stereo in doubt) [Compound 118, Isobutyric acid 2-(4-acetoxy-5-acetoxymethyl-3-hydroxy-3-methyl-tetrahydro-furan-2-yl)-7-oxo-6,7-dihydro-2H-2,3,5,6-tetraaza-benzo[cd]azulen-9-ylcarbamoyloxymethyl ester] yielded a solubility at 24 h of 60 µg/mL (≈ 104 µM). Still for that read-out and setting: to `Cc1oc(=O)oc1COC(=O)NC1=CC(=O)Nc2ncnc3c2c1cn3[C@@H]1O[C@H](COC(=O)C(C)C)[C@@H](OC(=O)C(C)C)C1(C)O` (stereo in doubt) [Compound 119, Isobutyric acid 4-hydroxy-3-isobutyryloxy-4-methyl-5-[9-(5-methyl-2-oxo-[1,3]dioxol-4-ylmethoxycarbonylamino)-7-oxo-6,7-dihydro-2,3,5,6-tetraaza-benzo[cd]azulen-2-yl]-tetrahydro-furan-2-ylmethyl ester] belongs 6 µg/mL (≈ 9.32 µM); to `CC(=O)OCOC(=O)NC1=CC(=O)Nc2ncnc3c2c1cn3[C@@H]1O[C@H](COC(C)=O)C(OC(C)=O)[C@@]1(C)O` (stereo in doubt) [Compound 120, Acetic acid 3-acetoxy-5-(9-acetoxymethoxycarbonylamino-7-oxo-6,7-dihydro-2,3,5,6-tetraaza-benzo[cd]azulen-2-yl)-4-hydroxy-4-methyl-tetrahydro-furan-2-ylmethylester], 60 µg/mL (≈ 110 µM). For `CCC(=O)OC[C@H]1O[C@@H](n2cc3c4c(ncnc42)NC(=O)C=C3N)C(C)(O)[C@@H]1OC(=O)CC` (stereo in doubt) [Compound 130, Propionic acid 5-(9-amino-7-oxo-6,7-dihydro-2,3,5,6-tetraaza-benzo[cd]azulen-2-yl)-4-hydroxy-4-methyl-3-propionyloxy-tetrahydro-furan-2-ylmethyl ester], the concentration in solution (solubility at 24 h) came to 850 µg/mL (≈ 1850 µM). On the same count and under the same terms, to `CCC(=O)OC[C@H]1O[C@@H](n2cc3c4c(ncnc42)NC(=O)C=C3N)C(C)(O)[C@@H]1O` (stereo in doubt) [Compound 131, Propionic acid 5-(9-amino-7-oxo-6,7-dihydro-2,3,5,6-tetraaza-benzo[cd]azulen-2-yl)-3,4-dihydroxy-4-methyl-tetrahydro-furan-2-ylmethylester] belongs 8060 µg/mL (≈ 20000 µM); to `CC(=O)OC1(C)[C@H](OC(=O)C(C)C)[C@@H](COC(=O)C(C)C)O[C@H]1n1cc2c3c(ncnc31)NC(=O)C=C2N` (stereo in doubt) [Compound 133, Isobutyric acid 4-acetoxy-5-(9-amino-7-oxo-6,7-dihydro-2,3,5,6-tetraaza-benzo[cd]azulen-2-yl)-3-isobutyryloxy-4-methyl-tetrahydro-furan-2-ylmethyl ester], 17 µg/mL (≈ 32.1 µM). Same read-out and setting: to `CC(C)C(=O)OCOC(=O)NC1=CC(=O)Nc2ncnc3c2c1cn3[C@@H]1O[C@H](CO)[C@@H](OC(=O)[C@@H](N)C(C)C)[C@]1(C)O` [Compound 110, 2-Amino-3-methyl-butyric acid 4-hydroxy-2-hydroxymethyl-5-(9-isobutyryloxymethoxycarbonyl-amino-7-oxo-6,7-dihydro-2,3,5,6-tetraaza-benzo[cd]azulen-2-yl)-4-methyl-tetrahydro-furan-3-yl ester] belongs 8160 µg/mL (≈ 13800 µM); to `CC(=O)OCOC(=O)NC1=CC(=O)Nc2ncnc3c2c1cn3[C@@H]1O[C@H](COC(=O)C(C)C)[C@@H](OC(=O)C(C)C)[C@@]1(C)O` [Compound 111, Isobutyric acid 5-(9-acetoxymethoxycarbonylamino-7-oxo-6,7-dihydro-2,3,5,6-tetraaza-benzo[cd]azulen-2-yl)-4-hydroxy-2-isobutyryloxymethyl-4-methyl-tetrahydro-furan-3-yl ester], 2 µg/mL (≈ 3.31 µM). The compound `CC(=O)O[C@@H]1[C@@H](CO)O[C@@H](n2cc3c4c(ncnc42)NC(=O)C=C3NC(=O)OCOC(=O)C(C)C)[C@]1(C)O` [Compound 112, Isobutyric acid 2-(4-acetoxy-3-hydroxy-5-hydroxymethyl-3-methyl-tetrahydro-furan-2-yl)-7-oxo-6,7-dihydro-2H-2,3,5,6-tetraaza-benzo[cd]azulen-9-ylcarbamoyloxymethyl ester] registered a solubility at 24 h of 80 µg/mL (≈ 150 µM). Same read-out and setting: to `CC(C)C(=O)OCOC(=O)NC1=CC(=O)Nc2ncnc3c2c1cn3[C@@H]1O[C@H](CO)[C@@H](OC(=O)C(C)C)C1(C)O` (stereo partly shown) [Compound 125, Isobutyric acid 4-hydroxy-2-hydroxymethyl-5-(9-isobutyryloxymethoxycarbonyl-amino-7-oxo-6,7-dihydro-2,3,5,6-tetraaza-benzo[cd]azulen-2-yl)-4-methyl-tetrahydro-furan-3-yl ester] belongs 51 µg/mL (≈ 90.8 µM). Still for that read-out and setting: to `Cc1oc(=O)oc1COC(=O)NC1=CC(=O)Nc2ncnc3c2c1cn3[C@@H]1O[C@H](CO)[C@@H](O)C1(C)O` (stereo partly shown) [Compound 126, [2-(3,4-Dihydroxy-5-hydroxymethyl-3-methyl-tetrahydro-furan-2-yl)-7-oxo-6,7-dihydro-2H-2,3,5,6-tetraaza-benzo[cd]azulen-9-yl]-carbamic acid5-methyl-2-oxo-[1,3]dioxol-4-ylmethyl ester] belongs 40 µg/mL (≈ 79.5 µM); to `CCC(=O)OC[C@H]1O[C@@H](n2cc3c4c(ncnc42)NC(=O)C=C3N)C(C)(OC(=O)CC)[C@@H]1OC(=O)CC` (stereo partly shown) [Compound 127, Propionic acid 5-(9-amino-7-oxo-6,7-dihydro-2,3,5,6-tetraaza-benzo[cd]azulen-2-yl)-4-methyl-3,4-bis-propionyloxy-tetrahydro-furan-2-ylmethyl ester], 133 µg/mL (≈ 258 µM); to `CC(C)C(=O)OC[C@H]1O[C@@H](n2cc3c4c(ncnc42)NC(=O)C=C3N)C(C)(OC(=O)C(C)C)[C@@H]1OC(=O)C(C)C` (stereo partly shown) [Compound 132, Isobutyric acid 5-(9-amino-7-oxo-6,7-dihydro-2,3,5,6-tetraaza-benzo[cd]azulen-2-yl)-3,4-bis-isobutyryloxy-4-methyl-tetrahydro-furan-2-ylmethyl ester], 44 µg/mL (≈ 78.9 µM).

The values are drawn from US20090062223A1, “AMINO TRICYCLIC-NUCLEOSIDE COMPOUNDS, COMPOSITIONS, AND METHODS OF USE” (GENELABS TECHNOLOGIES, INC., priority 2007, published 2009).
